Data published in ChEMBL document CHEMBL1201862, “PubChem BioAssay data set” (2004).
Activity calls are given as the source filed them.

Experiments:
[1] = decrease of insulin promoter-GFP reporter – imaging, high-content screening, mouse beta cells (AID 1628); format: functional; details: MIN6
[2] = MIN6 cell viability loss – mouse insulinoma, cytotoxicity control, dose response (AID 2122); format: functional;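 further: confirmatory high-throughput counterscreen run to flag cytotoxic compounds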
[3] = HEK-293T viability loss after treatment – luminescence, T-cell screen hits, cytotoxicity control for TCR NF-kB inhibitor project, dose response (AID 489026); format: functional, cell-based;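 further: cells exposed to compound about 14 hours before the viability readout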
INS1 = assay: INS-1E survival protection against cytokine death – cell-based, luminescence, retest, dose response (AID 449756); format: functional; details: Rattus norvegicus;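 further: cell death triggered by IL-1 beta plus TNF-alpha plus IFN-gamma mixture; protective hits raise ATP signal compared with cytokine alone wells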
[4] = reduction of Shn3 3'UTR-driven luciferase in osteoblasts – cell-based, Clone20 osteoblasts, firefly luciferase, cherry-picked, dose response (AID 624132); format: functional;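 further: firefly luciferase luminescence from reporter carrying the Shn3 3'UTR in osteoblasts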
[5] = loss of viability in HepG2 cells – cell-based, CellTiter-Glo, cherry-picked, cytotoxicity control for Shn3 inhibitor project, dose response (AID 624134); format: functional
[6] = non-specific 3'UTR reporter inhibition in Clone20-Shn3RL – cell-based, Renilla luciferase, cherry-picked, counter-screen for Shn3 inhibitor project, dose response (AID 624133); format: functional
[7] = molecular target: T1, COUP transcription factor 2 (Homo sapiens, UniProt P24468); assay: Luminescence-based cell-based high throughput dose response assay to identify inhibitors of COUP-TFII (NR2F2).; format: functional;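 further: HEK293 cells transiently cotransfected with COUP-TFII expression vector and reporter; luciferase reporter luminescence driven by COUP-TFII from the pX2-168 reporter plasmid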
T1 sequence (P24468 whole entry): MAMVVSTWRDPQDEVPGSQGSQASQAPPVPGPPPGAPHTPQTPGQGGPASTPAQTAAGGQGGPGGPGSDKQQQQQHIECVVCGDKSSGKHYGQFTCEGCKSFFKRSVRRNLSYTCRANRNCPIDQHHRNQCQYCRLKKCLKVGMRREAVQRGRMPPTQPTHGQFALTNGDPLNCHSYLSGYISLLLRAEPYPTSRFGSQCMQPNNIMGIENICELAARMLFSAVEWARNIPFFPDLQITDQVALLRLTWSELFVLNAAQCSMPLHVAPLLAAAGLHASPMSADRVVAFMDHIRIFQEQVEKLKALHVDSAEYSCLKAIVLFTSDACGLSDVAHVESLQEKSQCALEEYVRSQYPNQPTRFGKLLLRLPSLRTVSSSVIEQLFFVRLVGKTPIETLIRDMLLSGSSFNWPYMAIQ

[8] = molecular target: T2, Short transient receptor potential channel 4 (Mus musculus, UniProt Q9QUQ5); assay: calcium entry via TRPC4 opening agents – cell-based, HEK293 TRPC4/mu-opioid, Fluo-4 calcium, dose response (AID 434937); format: functional
T2 sequence (Q9QUQ5 whole entry): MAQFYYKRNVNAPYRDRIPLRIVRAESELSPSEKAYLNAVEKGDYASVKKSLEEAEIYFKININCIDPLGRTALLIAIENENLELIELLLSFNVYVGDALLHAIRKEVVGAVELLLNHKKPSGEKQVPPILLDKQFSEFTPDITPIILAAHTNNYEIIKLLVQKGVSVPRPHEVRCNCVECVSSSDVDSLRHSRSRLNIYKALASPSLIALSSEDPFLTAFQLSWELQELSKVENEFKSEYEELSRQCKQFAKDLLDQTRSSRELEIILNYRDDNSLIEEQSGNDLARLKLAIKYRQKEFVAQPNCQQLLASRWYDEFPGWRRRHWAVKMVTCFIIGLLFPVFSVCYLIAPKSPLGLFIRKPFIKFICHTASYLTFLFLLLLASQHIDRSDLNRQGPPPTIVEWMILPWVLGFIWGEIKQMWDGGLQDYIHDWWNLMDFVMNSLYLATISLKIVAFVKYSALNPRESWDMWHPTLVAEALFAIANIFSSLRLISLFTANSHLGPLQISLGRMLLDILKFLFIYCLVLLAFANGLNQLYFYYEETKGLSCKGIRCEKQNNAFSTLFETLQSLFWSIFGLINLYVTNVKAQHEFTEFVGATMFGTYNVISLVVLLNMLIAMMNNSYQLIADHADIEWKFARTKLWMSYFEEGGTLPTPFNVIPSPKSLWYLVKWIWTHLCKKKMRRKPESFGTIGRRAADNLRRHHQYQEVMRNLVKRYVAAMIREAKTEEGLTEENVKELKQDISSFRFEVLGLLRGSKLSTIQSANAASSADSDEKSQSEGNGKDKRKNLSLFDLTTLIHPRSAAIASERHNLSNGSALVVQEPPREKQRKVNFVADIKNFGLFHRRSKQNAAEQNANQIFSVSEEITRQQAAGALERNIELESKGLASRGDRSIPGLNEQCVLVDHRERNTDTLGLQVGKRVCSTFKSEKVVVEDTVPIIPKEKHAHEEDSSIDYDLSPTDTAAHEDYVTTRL

[9] = molecular target: Delta-type opioid receptor (Homo sapiens, UniProt P41143); assay: Counterscreen for agonists of heterodimerization of the mu 1 (OPRM1) and delta 1 (OPRD1) opioid receptors: Luminescence-based cell-based high throughput dose response assay to identify agonists of OPRD1 homodimerization. [Related pubchem assays (depositor defined):AID504326, AID504355, AID504692, AID504904, AID504905]; format: functional
Sequence of Delta-type opioid receptor (P41143 whole entry): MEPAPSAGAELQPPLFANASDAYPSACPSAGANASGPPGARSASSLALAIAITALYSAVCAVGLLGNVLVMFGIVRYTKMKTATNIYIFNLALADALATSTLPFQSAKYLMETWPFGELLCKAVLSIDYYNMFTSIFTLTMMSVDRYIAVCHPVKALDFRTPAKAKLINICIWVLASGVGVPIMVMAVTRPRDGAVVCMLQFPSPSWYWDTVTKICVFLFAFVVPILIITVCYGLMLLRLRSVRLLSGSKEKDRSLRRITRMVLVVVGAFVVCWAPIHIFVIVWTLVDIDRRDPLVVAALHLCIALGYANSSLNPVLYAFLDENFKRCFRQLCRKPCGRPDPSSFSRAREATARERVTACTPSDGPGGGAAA

Mu-type opioid receptor = Mu-type opioid receptor (Homo sapiens, UniProt P35372); assay: Counterscreen for agonists of heterodimerization of the mu 1 (OPRM1) and delta 1 (OPRD1) opioid receptors: Luminescence-based cell-based high throughput dose response assay to identify agonists of OPRM1 homodimerization.; format: functional;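 further: U2OS cells expressing OPRM1 and beta-arrestin as split beta-galactosidase partners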
Sequence of Mu-type opioid receptor (P35372 whole entry): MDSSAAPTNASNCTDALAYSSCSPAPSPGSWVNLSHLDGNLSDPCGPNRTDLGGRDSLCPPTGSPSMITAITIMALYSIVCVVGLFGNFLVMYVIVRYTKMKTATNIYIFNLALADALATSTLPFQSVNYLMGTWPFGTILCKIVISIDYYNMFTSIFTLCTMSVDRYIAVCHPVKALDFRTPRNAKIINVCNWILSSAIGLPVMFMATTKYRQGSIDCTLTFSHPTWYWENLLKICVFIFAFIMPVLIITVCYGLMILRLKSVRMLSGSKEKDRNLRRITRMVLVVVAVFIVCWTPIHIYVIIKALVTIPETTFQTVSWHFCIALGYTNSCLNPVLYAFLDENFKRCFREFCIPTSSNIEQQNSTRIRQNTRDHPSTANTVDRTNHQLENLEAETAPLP

[10] = molecular target: 5-hydroxytryptamine receptor 5A (Homo sapiens, UniProt P47898); assay: Counterscreen for agonists of OPRM1-OPRD1 heterodimerization: luminescence-based cell-based high throughput dose response assay to identify agonists of 5-hydroxytryptamine (serotonin) 5A receptor (HTR5A). [Related pubchem assays (depositor defined):AID504326, AID504355, AID504692, AID504904, AID504905]; format: functional
Sequence of 5-hydroxytryptamine receptor 5A (P47898 whole entry): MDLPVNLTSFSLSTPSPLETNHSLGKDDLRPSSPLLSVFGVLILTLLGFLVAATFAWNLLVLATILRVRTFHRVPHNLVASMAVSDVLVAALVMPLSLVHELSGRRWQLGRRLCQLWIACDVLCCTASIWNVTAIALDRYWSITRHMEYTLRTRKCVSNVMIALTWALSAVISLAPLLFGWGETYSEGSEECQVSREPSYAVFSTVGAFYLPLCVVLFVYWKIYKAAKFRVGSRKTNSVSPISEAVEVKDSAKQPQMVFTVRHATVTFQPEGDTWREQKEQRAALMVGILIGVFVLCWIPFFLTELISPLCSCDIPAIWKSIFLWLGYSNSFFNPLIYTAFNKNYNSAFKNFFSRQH

HEK293 [11] = assay: inhibition of NOD1-driven NF-kB reporter – cell-based, luminescence, uHTS, primary screen (AID 1578); format: functional; details: Homo sapiens
HEK293 [12] = assay: cells; format: functional, cell-based; details: Homo sapiens
HEK293 [13] = assay: cells; format: functional, cell-based; details: Homo sapiens; remark: listed apart in the source
[14] = molecular target: Nucleotide-binding oligomerization domain-containing protein 2 (Homo sapiens, UniProt Q9HC29); assay: inhibition of NOD2-driven NF-kB reporter – cell-based, luminescence, uHTS, HEK293 (AID 1566); format: functional
Sequence of Nucleotide-binding oligomerization domain-containing protein 2 (Q9HC29 whole entry, the tested form may be a part): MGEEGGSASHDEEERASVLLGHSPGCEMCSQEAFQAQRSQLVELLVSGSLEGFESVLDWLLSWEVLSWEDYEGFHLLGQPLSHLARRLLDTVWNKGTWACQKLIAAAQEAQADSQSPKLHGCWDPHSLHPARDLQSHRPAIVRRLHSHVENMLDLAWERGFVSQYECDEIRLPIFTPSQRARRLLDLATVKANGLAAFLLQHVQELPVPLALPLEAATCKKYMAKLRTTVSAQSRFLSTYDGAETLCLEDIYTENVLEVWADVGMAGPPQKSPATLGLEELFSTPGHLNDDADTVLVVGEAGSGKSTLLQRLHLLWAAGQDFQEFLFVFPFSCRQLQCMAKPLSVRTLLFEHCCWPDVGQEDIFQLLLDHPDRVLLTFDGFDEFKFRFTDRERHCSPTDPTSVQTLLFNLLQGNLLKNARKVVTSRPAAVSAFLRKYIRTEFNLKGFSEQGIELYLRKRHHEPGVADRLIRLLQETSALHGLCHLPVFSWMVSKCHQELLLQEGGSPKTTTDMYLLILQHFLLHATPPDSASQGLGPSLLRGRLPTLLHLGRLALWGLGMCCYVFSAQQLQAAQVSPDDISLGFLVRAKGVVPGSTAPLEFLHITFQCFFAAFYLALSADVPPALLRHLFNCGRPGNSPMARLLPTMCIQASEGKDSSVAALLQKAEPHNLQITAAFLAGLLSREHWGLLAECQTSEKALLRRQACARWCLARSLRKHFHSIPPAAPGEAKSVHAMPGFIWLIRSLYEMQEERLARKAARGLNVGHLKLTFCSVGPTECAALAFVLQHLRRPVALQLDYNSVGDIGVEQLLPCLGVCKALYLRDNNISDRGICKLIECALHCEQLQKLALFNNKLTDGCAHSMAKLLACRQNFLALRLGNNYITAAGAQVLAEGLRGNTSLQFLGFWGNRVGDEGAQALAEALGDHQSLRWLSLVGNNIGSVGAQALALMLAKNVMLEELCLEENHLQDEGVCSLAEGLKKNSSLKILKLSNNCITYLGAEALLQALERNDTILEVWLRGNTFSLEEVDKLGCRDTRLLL

HEK293 [15] = assay: NOD2 signaling inhibitors in MDP-stimulated cells, cell-based, uHTS, luminescence (AID 2001); format: functional; details: Homo sapiens
HEK293 [16] = assay: cells; format: functional, cell-based; details: Homo sapiens; remark: listed apart in the source
Tumor necrosis factor = Tumor necrosis factor (Homo sapiens, UniProt P01375); assay: analog potency on TNFa NF-kB signaling – cell-based, revised, SAR follow-up (AID 2337); format: functional
Sequence of Tumor necrosis factor (P01375 whole entry, the tested form may be a part): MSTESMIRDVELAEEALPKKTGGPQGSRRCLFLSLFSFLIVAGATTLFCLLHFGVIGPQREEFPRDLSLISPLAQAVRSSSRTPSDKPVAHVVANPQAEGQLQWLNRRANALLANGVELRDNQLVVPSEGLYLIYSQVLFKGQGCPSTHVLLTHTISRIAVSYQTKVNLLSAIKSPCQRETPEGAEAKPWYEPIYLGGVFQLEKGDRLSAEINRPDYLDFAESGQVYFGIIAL

[17] = molecular target: Nucleotide-binding oligomerization domain-containing protein 1 (Homo sapiens, UniProt Q9Y239); assay: blockers of NOD1 pathway activity – revised, SAR follow-up (AID 2333); format: functional
Sequence of Nucleotide-binding oligomerization domain-containing protein 1 (Q9Y239 whole entry, the tested form may be a part): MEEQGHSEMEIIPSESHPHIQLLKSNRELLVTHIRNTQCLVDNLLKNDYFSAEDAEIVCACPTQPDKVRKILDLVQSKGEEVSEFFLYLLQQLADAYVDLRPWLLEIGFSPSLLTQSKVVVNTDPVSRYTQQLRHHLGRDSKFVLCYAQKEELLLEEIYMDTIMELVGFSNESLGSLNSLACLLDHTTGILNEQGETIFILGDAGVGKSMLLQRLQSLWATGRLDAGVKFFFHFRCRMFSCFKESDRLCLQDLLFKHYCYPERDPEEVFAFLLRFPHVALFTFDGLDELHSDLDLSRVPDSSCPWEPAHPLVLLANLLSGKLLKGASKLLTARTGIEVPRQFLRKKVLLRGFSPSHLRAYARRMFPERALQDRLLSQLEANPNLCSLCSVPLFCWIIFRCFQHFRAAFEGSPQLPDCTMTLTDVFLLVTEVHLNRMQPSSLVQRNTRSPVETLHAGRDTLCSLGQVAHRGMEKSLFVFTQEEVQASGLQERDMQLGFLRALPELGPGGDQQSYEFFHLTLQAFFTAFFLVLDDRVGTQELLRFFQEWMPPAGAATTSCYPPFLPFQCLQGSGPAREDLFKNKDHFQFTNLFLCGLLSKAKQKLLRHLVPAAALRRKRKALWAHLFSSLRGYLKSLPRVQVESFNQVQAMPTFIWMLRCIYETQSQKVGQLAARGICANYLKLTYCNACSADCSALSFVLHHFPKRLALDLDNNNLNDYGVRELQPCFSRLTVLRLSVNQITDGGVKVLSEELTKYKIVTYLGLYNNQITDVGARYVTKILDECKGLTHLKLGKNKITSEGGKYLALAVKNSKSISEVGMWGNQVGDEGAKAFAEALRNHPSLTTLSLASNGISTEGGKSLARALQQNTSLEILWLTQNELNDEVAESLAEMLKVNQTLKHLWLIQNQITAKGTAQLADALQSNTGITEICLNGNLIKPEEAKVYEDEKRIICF

HEK293 [18] = assay: cells; details: Homo sapiens
[19] = molecular target: T3, Tyrosine-protein phosphatase non-receptor type 7 (Homo sapiens, UniProt P35236); format: functional
T3 sequence (P35236 whole entry): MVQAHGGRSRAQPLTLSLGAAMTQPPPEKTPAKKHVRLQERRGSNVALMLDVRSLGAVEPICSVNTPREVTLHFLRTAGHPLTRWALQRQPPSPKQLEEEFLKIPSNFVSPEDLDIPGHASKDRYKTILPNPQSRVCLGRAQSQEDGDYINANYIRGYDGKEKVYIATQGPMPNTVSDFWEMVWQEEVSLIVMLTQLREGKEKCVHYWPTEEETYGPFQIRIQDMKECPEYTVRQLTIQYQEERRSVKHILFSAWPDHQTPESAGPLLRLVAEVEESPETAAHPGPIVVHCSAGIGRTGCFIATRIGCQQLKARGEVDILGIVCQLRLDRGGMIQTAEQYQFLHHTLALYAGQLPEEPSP

[20] = molecular target: T4, Tyrosine-protein phosphatase non-receptor type 22 (Homo sapiens, UniProt Q9Y2R2); format: functional
T4 sequence (Q9Y2R2 whole entry): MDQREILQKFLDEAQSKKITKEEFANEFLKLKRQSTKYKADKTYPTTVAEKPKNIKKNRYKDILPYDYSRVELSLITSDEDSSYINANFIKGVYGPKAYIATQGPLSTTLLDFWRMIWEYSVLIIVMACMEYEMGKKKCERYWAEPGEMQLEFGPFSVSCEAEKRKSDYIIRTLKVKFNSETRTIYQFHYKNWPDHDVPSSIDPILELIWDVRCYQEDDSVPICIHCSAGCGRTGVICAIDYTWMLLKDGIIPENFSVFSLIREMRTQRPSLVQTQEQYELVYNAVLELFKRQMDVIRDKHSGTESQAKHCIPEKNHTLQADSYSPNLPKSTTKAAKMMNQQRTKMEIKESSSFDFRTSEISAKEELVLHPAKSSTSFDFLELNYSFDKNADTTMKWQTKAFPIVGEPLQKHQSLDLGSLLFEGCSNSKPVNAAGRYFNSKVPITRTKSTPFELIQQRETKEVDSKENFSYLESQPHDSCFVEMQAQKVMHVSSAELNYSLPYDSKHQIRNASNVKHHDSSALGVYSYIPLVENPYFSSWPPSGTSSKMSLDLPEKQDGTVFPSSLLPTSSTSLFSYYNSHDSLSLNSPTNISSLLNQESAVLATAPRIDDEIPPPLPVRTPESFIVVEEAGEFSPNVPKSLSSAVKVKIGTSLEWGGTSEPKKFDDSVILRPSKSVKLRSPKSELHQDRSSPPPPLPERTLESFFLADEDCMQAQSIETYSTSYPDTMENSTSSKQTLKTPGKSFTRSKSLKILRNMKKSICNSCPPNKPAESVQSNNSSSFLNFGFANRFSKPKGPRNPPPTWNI

[21] = molecular target: T4, Tyrosine-protein phosphatase non-receptor type 22; format: functional; remark: listed apart in the source
[22] = molecular target: T5, Rac GTPase-activating protein 1 (Homo sapiens, UniProt Q9H0H5); assay: blockers of MgcRacGAP-driven Rac1 GTP hydrolysis – biochemical, ADP Hunter fluorescence, primary and confirmatory, confirmation (AID 624330); format: functional
T5 sequence (Q9H0H5 whole entry): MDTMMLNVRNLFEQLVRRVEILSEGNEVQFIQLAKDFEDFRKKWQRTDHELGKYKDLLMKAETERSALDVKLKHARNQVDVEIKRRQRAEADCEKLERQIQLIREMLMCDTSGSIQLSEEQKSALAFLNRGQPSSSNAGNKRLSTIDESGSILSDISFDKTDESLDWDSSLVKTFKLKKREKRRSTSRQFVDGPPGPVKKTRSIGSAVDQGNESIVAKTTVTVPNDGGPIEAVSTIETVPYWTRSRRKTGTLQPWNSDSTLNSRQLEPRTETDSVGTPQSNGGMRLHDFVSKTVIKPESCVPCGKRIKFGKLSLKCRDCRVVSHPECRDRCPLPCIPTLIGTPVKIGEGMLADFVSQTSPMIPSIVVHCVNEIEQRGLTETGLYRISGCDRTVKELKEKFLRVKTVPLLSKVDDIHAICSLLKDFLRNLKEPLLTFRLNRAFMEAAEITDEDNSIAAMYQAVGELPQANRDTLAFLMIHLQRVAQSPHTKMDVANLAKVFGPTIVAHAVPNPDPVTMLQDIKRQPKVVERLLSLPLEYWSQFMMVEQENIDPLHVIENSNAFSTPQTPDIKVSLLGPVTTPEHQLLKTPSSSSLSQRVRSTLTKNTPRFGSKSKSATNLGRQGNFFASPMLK

Escherichia coli [23] = assay: microbe, parasite or virus in culture
Escherichia coli [24] = assay: microbe, parasite or virus in culture; remark: listed apart in the source
H9c2 = assay: cells; format: functional, cell-based; details: Rattus norvegicus, H9c2, Myocardium;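 further: confirmatory concentration-response retest of ultra-high-throughput screening hits for modulation of myocardial damage; cell death induced by hydrogen peroxide oxidative stress; compound pretreatment for 60 min then peroxide exposure for 2 h; potency is for protecting the cells against peroxide damage rather than for killing them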

SMILES: CCC1CCCCN1C(=O)c1cc(COc2ccc3ncccc3c2)on1 (stereo unspecified)
- IC50 [1]: 0.444 µM (active)
- IC50 [2]: 0.339 µM (active)
- IC50 [3]: > 80 µM (inactive)
- AC50 (INS1): 1.89 µM (active)
- AC50 [4]: 0.46 µM (active)
- AC50 [5]: 2.06 µM (active)
- AC50 [6]: 1.15 µM (active)
- IC50 [7]: 4.58 µM (active)

SMILES: Cc1ccc(C)c(NC(S)=NCC(c2ccccc2)N(C)C)c1 (stereo unspecified)
- EC50 [8]: 0.188 µM (active)
- EC50 [9]: 50 µM (inactive)
- EC50 (Mu-type opioid receptor): 4.15 µM (active)
- EC50 [10]: > 92.5 µM (inactive)

SMILES: Cc1onc(-c2ccccc2)c1C(=O)Nc1ncc([N+](=O)[O-])s1
- EC50 (HEK293 [11]): 2.25 µM (active)
- IC50 (HEK293 [12]): 15.8 µM (active)
- IC50 (HEK293 [13]): > 20 µM (inactive)
- EC50 [14]: 2.62 µM (active)
- IC50 (HEK293 [15]): 8.73 µM (active)
- IC50 (HEK293 [16]): > 20 µM (inactive)
- IC50 (Tumor necrosis factor): 6.31 µM (active)
- IC50 [17]: 4.88 µM (active)
- IC50 (HEK293 [18]): 18 µM (active)

SMILES: Cc1cc2nc(C)n(CCCNC(=O)Nc3cccc4ccccc34)c2cc1C
- IC50 [1]: 1.7 µM (active)
- IC50 [2]: 1.99 µM (active)
- AC50 [4]: 3.19 µM (active)
- AC50 [5]: 28.5 µM (active)
- AC50 [6]: 6.38 µM (active)

SMILES: Cc1[nH]c2ccccc2c1N=Nc1c(C)n(C)n(-c2ccccc2)c1=O
- IC50 [19]: > 79.4 µM (inactive)
- IC50 [20]: > 79.4 µM (inactive)
- IC50 [21]: > 79.4 µM (inactive)
- IC50 [22]: 41.1 µM (active)

SMILES: CC(C)(C)NC(=O)c1nn(Cc2ccccc2)c(=O)c2ccccc12
- AC50 (Escherichia coli [23]): 29.1 µM (active)
- AC50 (Escherichia coli [24]): 53.2 µM (active)

SMILES: O=C(Nc1nccs1)c1ccc(S(=O)(=O)NCc2cccs2)cc1
- IC50 [19]: > 79.4 µM (inactive)
- IC50 [20]: > 79.4 µM (inactive)
- IC50 [21]: > 79.4 µM (inactive)

SMILES: Cc1ccccc1NC(S)=NCC(c1cccnc1)N(C)C (stereo unspecified)
- EC50 [8]: 0.0427 µM (active)
- EC50 [9]: 74.6 µM (inactive)
- EC50 (Mu-type opioid receptor): 12.5 µM (inactive)
- EC50 [10]: > 92.5 µM (inactive)

SMILES: COc1cccc(-c2nn3c(-c4ccccn4)nnc3s2)c1
- IC50 (H9c2): 16.5 µM (active)
- AC50 (Escherichia coli [24]): 192 µM (active)
